{"source": "ChEMBL document CHEMBL3045958", "about": "“The design and synthesis of inhibitors of adenosine 5'-monophosphate deaminase” (Bioorg Med Chem Lett, 1999)", "key": {"AMP deaminase 1": {"molecular_target": "T1, AMP deaminase 1 (Oryctolagus cuniculus, UniProt P81072)", "T1 sequence (P81072 whole entry)": "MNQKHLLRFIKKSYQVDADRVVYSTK", "assay": "Inhibition of Oryctolagus cuniculus (rabbit) muscle adenylate deaminase", "parameters": "species or system Muscle tissue"}, "[1]": {"assay": "Inhibition of adenylate deaminase"}, "Adenosine deaminase": {"molecular_target": "T2, Adenosine deaminase (Bos taurus, UniProt P56658)", "T2 sequence (P56658 whole entry)": "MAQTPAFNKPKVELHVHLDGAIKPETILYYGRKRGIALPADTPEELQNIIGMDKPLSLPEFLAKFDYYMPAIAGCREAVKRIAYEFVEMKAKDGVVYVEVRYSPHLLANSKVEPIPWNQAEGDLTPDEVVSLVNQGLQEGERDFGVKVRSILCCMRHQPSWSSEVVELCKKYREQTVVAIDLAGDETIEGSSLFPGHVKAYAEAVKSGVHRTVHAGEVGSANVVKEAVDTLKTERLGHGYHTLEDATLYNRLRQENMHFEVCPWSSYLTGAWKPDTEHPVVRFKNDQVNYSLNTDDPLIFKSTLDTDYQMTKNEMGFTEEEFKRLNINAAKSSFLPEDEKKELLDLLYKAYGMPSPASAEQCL", "assay": "Inhibition of Bos taurus (calf) […]"}, "Pisum sativum [2]": {"tested_on": "Pisum sativum", "assay": "Increase in ATP levels in Pisum sativum (pea) seedlings at 100 uM measured per gram of frozen weight after 24 hr by luciferase based assay (reference value: 213 to 226 nmol/g of frozen weight)", "type": "functional, Lathyrus oleraceus"}, "Pisum sativum [3]": {"tested_on": "Pisum sativum", "assay": "Increase in ATP levels in Pisum sativum (pea) seedlings at 100 uM measured per gram of frozen weight after 4 hr by luciferase based assay (reference value: 253 to 267 nmol/g of frozen weight)", "type": "functional, Lathyrus oleraceus"}}, "note": "Active and inactive are the calls of the source. The rule behind the calls is not given here."}
{"smiles": "O=P(O)(O)OC[C@H]1O[C@@H](c2n[nH]c3cncnc23)[C@H](O)[C@@H]1O", "values": [{"measurement": "IC50", "setting": "AMP deaminase 1", "result": 0.07, "unit": "µM"}]}
{"smiles": "O=P(O)(O)OC[C@H]1O[C@@H](n2cnc3cncnc32)[C@H](O)[C@@H]1O", "values": [{"measurement": "Ki", "setting": "AMP deaminase 1", "result": 6.5, "unit": "µM"}]}
{"smiles": "O=P(O)(O)OC[C@H]1C[C@@H](n2cnc3cncnc32)[C@H](O)[C@@H]1O", "values": [{"measurement": "inhibition", "setting": "[1]", "result": "inactive"}]}
{"smiles": "OC[C@H]1C[C@@H](n2cnc3cncnc32)[C@H](O)[C@@H]1O", "values": [{"measurement": "inhibition", "setting": "[1]", "result": "inactive"}]}
{"smiles": "OC[C@H]1O[C@@H](c2n[nH]c3cncnc23)[C@H](O)[C@@H]1O", "note": "[DEAMINOFORMYCIN]", "values": [{"measurement": "IC50", "setting": "Adenosine deaminase", "result": 5, "unit": "µM"}, {"measurement": "Activity", "setting": "Pisum sativum [2]", "result": 693, "unit": "nmol"}, {"measurement": "Activity", "setting": "Pisum sativum [3]", "result": 423, "unit": "nmol"}, {"measurement": "inhibition", "setting": "[1]", "result": "inactive"}]}
